The values below come from paper PMC10628124, “Elevator-like movements of prestin mediate outer hair cell electromotility” (Nature Communications, 2023).

Holding throughout (format): cell-based
Test [1] concerns the target T1, zPres (Danio rerio, UniProt Q7T2C4, R505K, form not given).
T1 construct: gene slc26a5; full length; C-terminal GFP fusion in CHO cells (pEGFP-N1); in Xenopus oocytes (pGEMHE) with functionally silent R505K; homodimer
T1 sequence (Q7T2C4 1-739 R505K): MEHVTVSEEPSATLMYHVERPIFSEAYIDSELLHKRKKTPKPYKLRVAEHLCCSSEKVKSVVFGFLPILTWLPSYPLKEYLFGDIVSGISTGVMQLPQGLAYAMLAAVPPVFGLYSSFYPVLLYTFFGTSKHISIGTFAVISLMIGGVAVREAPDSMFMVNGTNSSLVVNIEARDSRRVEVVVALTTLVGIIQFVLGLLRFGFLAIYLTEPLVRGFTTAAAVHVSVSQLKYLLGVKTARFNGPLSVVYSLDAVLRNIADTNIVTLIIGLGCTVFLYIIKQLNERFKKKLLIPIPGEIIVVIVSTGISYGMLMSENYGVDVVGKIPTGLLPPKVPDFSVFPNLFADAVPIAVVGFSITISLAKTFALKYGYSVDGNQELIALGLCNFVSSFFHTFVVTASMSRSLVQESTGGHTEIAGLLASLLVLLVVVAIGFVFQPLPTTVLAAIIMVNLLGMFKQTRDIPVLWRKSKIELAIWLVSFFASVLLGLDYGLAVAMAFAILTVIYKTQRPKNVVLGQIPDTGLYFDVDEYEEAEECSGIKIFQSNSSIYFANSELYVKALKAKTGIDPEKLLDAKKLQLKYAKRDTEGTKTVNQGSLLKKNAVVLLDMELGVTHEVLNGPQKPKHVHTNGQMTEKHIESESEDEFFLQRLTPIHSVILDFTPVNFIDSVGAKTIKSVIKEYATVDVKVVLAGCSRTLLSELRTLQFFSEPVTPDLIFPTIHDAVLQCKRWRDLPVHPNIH
Description: whole-cell patch clamp, oxalate-chloride counter-transport current, CHO cells. Particulars: 106 mM intracellular oxalate; extracellular chloride; current at 0 mV; GFP fusion.

Test [2] addresses T2, zPres (Danio rerio, UniProt Q7T2C4, R505K).
T2 construct: gene slc26a5; full length; C-terminal GFP fusion in CHO cells (pEGFP-N1); in Xenopus oocytes (pGEMHE) with functionally silent R505K; homodimer
T2 sequence (Q7T2C4 1-739 R505K): T1 sequence (Q7T2C4 1-739 R505K)
Description: whole-cell patch clamp, non-linear capacitance, CHO cells. Particulars: 10 mM extracellular salicylate; 160 mM intracellular Cl-; pH 7.4; zPres-GFP; inhibition. In general terms: Patch clamp records ionic current or voltage across a cell membrane.

The next test addresses T3, rPres (Rattus norvegicus, UniProt Q9EPH0, R150C).
T3 construct: gene Slc26a5; full length; C-terminal 6xHis tag in Xenopus oocytes (pGEMHE); homodimer
T3 sequence (Q9EPH0 1-744 R150C): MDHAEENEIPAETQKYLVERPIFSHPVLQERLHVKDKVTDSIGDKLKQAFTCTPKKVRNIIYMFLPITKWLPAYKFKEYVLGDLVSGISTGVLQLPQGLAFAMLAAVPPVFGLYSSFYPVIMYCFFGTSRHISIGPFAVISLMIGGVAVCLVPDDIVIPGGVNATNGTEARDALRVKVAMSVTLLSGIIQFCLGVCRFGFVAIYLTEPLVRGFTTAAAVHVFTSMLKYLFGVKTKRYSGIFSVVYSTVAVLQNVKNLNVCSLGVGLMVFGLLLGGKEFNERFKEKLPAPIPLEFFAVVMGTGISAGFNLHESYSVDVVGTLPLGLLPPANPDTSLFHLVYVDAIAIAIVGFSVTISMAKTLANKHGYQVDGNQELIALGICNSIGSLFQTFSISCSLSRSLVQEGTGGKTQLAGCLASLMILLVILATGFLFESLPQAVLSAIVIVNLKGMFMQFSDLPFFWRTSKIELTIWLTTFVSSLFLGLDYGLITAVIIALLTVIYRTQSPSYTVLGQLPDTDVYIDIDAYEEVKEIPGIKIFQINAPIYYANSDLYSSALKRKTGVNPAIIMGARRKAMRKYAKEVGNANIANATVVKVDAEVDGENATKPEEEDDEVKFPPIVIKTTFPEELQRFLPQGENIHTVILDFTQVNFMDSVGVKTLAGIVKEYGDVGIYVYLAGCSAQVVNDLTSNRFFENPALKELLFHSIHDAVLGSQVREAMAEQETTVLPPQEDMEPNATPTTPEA
Description: voltage-clamp fluorometry, Xenopus oocytes. The conditions noted are these: 10 mM extracellular salicylate; labelled at C150 with MTS-TAMRA; signal suppressed, V1/2 depolarized.

On to `O=C(O)C(=O)O` [oxalate], for which, on zPres [1], the “whole-cell patch clamp, oxalate-chloride counter-transport current, CHO cells” value is “monitored as the electrogenic oxalate-chloride counter-transport current by whole-cell patch-clamping”.
Consider `O=C(O)c1ccccc1O` [salicylate], for which the “whole-cell patch clamp, non-linear capacitance, CHO cells” value at zPres [2] was “NLC recorded from cells expressing zPres was readily inhibited by salicylate”. In addition, the “voltage-clamp fluorometry, Xenopus oocytes” value at rPres is recorded as “salicylate, suppressed the voltage-dependent fluorescence signals of rPres-R150C-TAMRA”.
